Source: patent US20160361398A1, “METHOD FOR THE TREATMENT OF MULTIPLE SCLEROSIS” (Vereniging voor Christelijk Wetenschappe Onderwijs, priority 2015, published 2016)
No end group written: not given here.

What was measured:
[1] = system: Th1 and Th17 cells generated from 2D2 CD4 T cells; experiment: Inhibition of effector Th1 and Th17 cells generated from 2D2 T cells, re-stimulated with pulsed DCs; format: cell-based, mouse; settings: supernatant after 24 hours; for secretion of effector cytokine by Th1 cells (IFN-gamma): FIG. 1E left panel; for secretion of effector cytokine by Th17 cells (IL-17): FIG. 1E right panel
Text: As stated hereinbefore, Th1 and Th17 are the effector CD4T cells that cause inflammation in MS. […] This was not observed when these effector cells were co-cultured with DCs loaded with non-sialylated MOG 35-55 (FIG. 1E). Thus, it was concluded that T cells generated in the presence of DCs exposed to α-2,6-Sia-MOG35-55, indeed were functional in that they were able to suppress MOG-specific effector T cells and, therefore, able to dampen ongoing inflammation. It follows that the disclosure may be applied for treating ongoing inflammation, such as the inflammation observed in MS patients, when, at the peak of the disease, auto-reactive, myelin-specific CD4^+ and CD8^+ T cells are involved in the demyelination of the neurons.
(§1) Antigen-specific nave CD4+CD62LhiCD25− T cells were purified from spleen and LN cell suspensions obtained from 2D2 mice using the Dynal mouse CD4+ CD62L+ T cell isolation kit II mouse (Miltenyi Biotec, Bergisch Gladbach, Germany) or by sorting on a MoFlo (DakoCytomation, Glostrup, Denmark). The resulting naïve CD4+ CD62L+CD25− T cell populations were typically 95% pure as assessed by flow cytometry. Naïve CD4+ T cells (5×10^4) were added to wells containing DCs (1×10^4) that were pulsed with indicated concentrations of antigen modified with a sialylated oligosaccharide or native antigen 3 hours prior. After 2 days, 10 U/ml recombinant mouse IL-2 (Invitrogen, Bleijswijk, The Netherlands) was added. T-cell polarization was evaluated on day 6 by intra-cellular staining for Foxp3 and IFN-γ following 5 hours restimulation with phorbol 12-myristate 13-acetate (PMA; […])/ionomycin (Sigma; 500 ng/ml) in the presence of Brefeldin A (Sigma; 5 μg/ml). For inhibition of effector Th1 and Th17 cells, Naïve 2D2 T cells were converted in Th1 or Th17 cells by culturing; one week later, effector T cells re-stimulated with DC pulsed with MOG or Sialylated MOG. After 24 hours, the supernatant was harvested for presence of IFN-γ or IL 17 as measure of activity of Th1 and Th17 effector cells, respectively.

[2] = system: MOG-specific effector CD4 T cells from EAE splenocytes; experiment: EAE splenocytes re-stimulated ex vivo with antigen-loaded DCs: [3H]thymidine incorporation; format: cell-based, mouse; settings: after 4 days of culture; EAE scores 1, 2 and 3; FIG. 1F
Description: To examine this even further, testing was performed to determine whether DCs exposed to α-2,6-Sia-MOG35-55 were able to inhibit MOG-specific effector T cells that were obtained from splenocytes from mice suffering from experimental autoimmune encephalomyelitis (EAE). To this effect, CD4 effector T cells were harvested from splenocytes of mice at various EAE clinical scores, representing different stages of effector T cell number and activity, wherein score 1 is the onset of disease and score 2 and 3 are the more severe phases of the disease.
Testing was performed to determine whether DCs ex vivo loaded with Sia-MOG could inhibit the proliferation of the MOG-specific effector CD4 T cells that were obtained from EAE mice.
DCs loaded with α-2-6-Sia-MOG35-55 or non-sialylated MOG35-55 were cultured with EAE splenocytes and, after 4 days of culture, [3H]thymidine incorporation was determined as a measure of proliferation and division of CD4 T cells (FIG. 1 F).
(§2) Splenocytes from mice that suffered EAE were re-stimulated ex-vivo with DCs loaded with either non-sialylated MOG or α-2-6-Sia-MOG35-55 and as a control, DC with no antigen. DC and T cells were cultured as described in Example 2, as described above, for 4 days. 3H and IFN-γ was determined as described above.

[3] = system: MOG-responsive CD4+ T cells (2D2 T cells); experiment: T helper differentiation: antigen-pulsed DCs co-cultured with naive 2D2 CD4+ T cells, intracellular staining for Foxp3 and IFN-γ; format: cell-based, mouse; settings: cultured six days with 2D2 T cells; for induction of suppressive Foxp3+CD4+ T cells: FIG. 1A; for CD4+ IFN-γ+ MOG effector T cells: FIG. 1B
Text: For that purpose, DC were pulsed with α-2-6-Sia-MOG35-55 and a non-sialylated MOG 35-55 peptide as a control, and cultured for six days with MOG-responsive CD4^+ T cells (2D2 T cells (Bettelli et al., J. Exp. Med., 2003).
as §1

[4] = system: MOG-reactive effector T cells from EAE mice; experiment: EAE splenocytes re-stimulated ex vivo with antigen-loaded DCs: IFN-γ production; format: cell-based, mouse; settings: 4 days of culture; EAE mice with different scoring; FIG. 1G
Description: To determine the functionality of the MOG-reactive effector cells, IFN-γ production was measured (FIG. 1G).
as §2
(§3) Cytokine production by T cells and DCs was assessed by cytometric bead arrays using the CBA Th1/2/17 kit and mouse inflammation kit, respectively (BD Biosciences), or by ELISA using specific antibody pairs (eBiosciences) following the manufacturers' instructions.

[5] = system: MOG-specific CD4+ (2D2) T-cells; experiment: IFN-γ in culture supernatants of DC / 2D2 T-cell co-cultures; format: cell-based, mouse; settings: 2D2 T cells primed by antigen-loaded DCs; FIG. 1C
Description: as §1, with “For inhibition of effector Th1 and Th17 cells, Naïve 2D2 T cells were converted in Th1 or Th17 cells by culturing; one week later, effector T cells re-stimulated with DC pulsed with MOG or Sialylated MOG. After 24 hours, the supernatant was harvested for presence of IFN-γ or IL 17 as measure of activity of Th1 and Th17 effector cells, respectively.” left out
as §3

[6] = system: MOG-specific CD4+ T cells; experiment: qRT-PCR of MOG-specific CD4+ T cells isolated on day 6 of co-culture with pulsed DCs; format: cell-based, mouse; settings: for Foxp3 mRNA level (qRT-PCR, normalized to GAPDH): FIG. 1D right panel
Description: FIG. 1D: (Left panel) Expression of T-bet, which is a measure for IFN-γ-producing effector CD4 T cells (Th1). (Right panel) Foxp3 mRNA, which is a measure for Treg cells that suppress, were determined using qRT-PCR and subsequently normalized to housekeeping gene GAPDH, which is equal under all conditions.

[7] = system: experimental autoimmune encephalomyelitis; settings: intravenous administration; cited from earlier work
[8] = system: naive OVA-specific CD4+ T cells (OT-II); experiment: Antigen specificity: loaded DCs challenged with OVA, co-cultured with OT-II cells, Foxp3+ CD4+ by flow cytometry; format: cell-based, mouse; settings: for tolerogenic cells (Foxp3+ CD4+ T cells) in a population of OT-II cells: loaded DCs subsequently challenged with OVA
Description: (§4) For that purpose, dendritic cells were loaded with sia-OVA and subsequently challenged in the presence of specific CD4+ T cells with either OVA or with a myelin oligodendrocyte glycoprotein peptide (MOG 35-55).
(§5) The thus-loaded dendritic cells were then co-cultured with naive MOG-specific CD4+ T cells (called 2D2) in the presence of MOG 35-55 or with naive OVA-specific CD4+ T cells (called OT-II) in the presence of ovalbumin (OVA).
(§6) Subsequently, it was determined whether sia-OVA-loaded dendritic cells were able to induce tolerogenic T cells in an antigen-specific manner. This was done by determining the percentage of Foxp3+ CD4+ T cells by flow cytometry.

[9] = system: naive MOG-specific CD4+ T cells (2D2); experiment: Antigen specificity: sia-OVA-loaded DCs challenged with MOG 35-55, co-cultured with 2D2 cells, Foxp3+ CD4+ by flow cytometry; format: cell-based, mouse; settings: loaded DCs subsequently challenged with MOG 35-55
Description: as §4, §5, §6

## MEVGWYRPPFSRVVHLYRNGK [non-sialylated MOG35-55, reference compound]
[1]
  secretion of effector cytokine by Th1 cells (IFN-gamma): not observed
  secretion of effector cytokine by Th17 cells (IL-17): not observed
[2]
  proliferation of MOG-specific CD4 T cells ([3H]thymidine incorporation): stimulate the proliferation
[3]
  induction of suppressive Foxp3+CD4+ T cells: not induced
  CD4+ IFN-γ+ MOG effector T cells: 3.5%
[4]
  IFN-γ production of MOG-reactive effector cells: enhance
[5]
  secreted IFN-γ in culture supernatants: significant amounts
[6]; FIG. 1D left panel
  T-bet mRNA level (qRT-PCR, normalized to GAPDH): higher mRNA levels
[6]
  Foxp3 mRNA level (qRT-PCR, normalized to GAPDH): hardly expressed
[7]
  effect on experimental autoimmune encephalomyelitis: suppresses

## OVA: ovalbumin, control antigen [reference compound]
[8]
  tolerogenic cells (Foxp3+ CD4+ T cells) in a population of OT-II cells: did not induce tolerogenic cells above background levels

## sia-OVA: sia-2,3 and 2,6-conjugated ovalbumin
[8]
  tolerogenic cells (Foxp3+ CD4+ T cells) in a population of OT-II cells: about 10%
[9]
  tolerogenic cells (Foxp3+ CD4+ T cells) in a population of 2D2 cells: did not induce tolerogenic cells above background levels

## α-2-6-Sia-MOG35-55: MOG 35-55 peptide with N-terminal cysteine covalently attached via MPBH linker to 6′-sialyl-N-acetyllactosamine (Neu5Ac(α)2-6Gal(β)1-4GlcNAc) (GPGYPIRALVGDEAELPCRIS; not fully specified (N-terminus); also: N-terminal Cys linked via MPBH to 6'-sialyl-LacNAc (Neu5Ac(α)2-6Gal(β)1-4GlcNAc); UniProt Q61885 35-55, looked up, fragment)
[1]
  secretion of effector cytokine by Th1 cells (IFN-gamma): significantly reduced
  secretion of effector cytokine by Th17 cells (IL-17): significantly reduced
[2]
  proliferation of MOG-specific CD4 T cells ([3H]thymidine incorporation): clear reduction of proliferation
[3]
  induction of suppressive Foxp3+CD4+ T cells: majority of the CD4 T cells co-express Foxp3
  CD4+ IFN-γ+ MOG effector T cells: 0.3%
[4]
  IFN-γ production of MOG-reactive effector cells: suppressed
[5]
  secreted IFN-γ in culture supernatants: reduction
[6]
  Foxp3 mRNA level (qRT-PCR, normalized to GAPDH): high levels

## α-2-6-Sia-OVA: OVA coupled to 6′-Sialyl-N-acetyllactosamine (6′-SLN)
[8]; DCs exposed to the antigen
  immune tolerance against OVA: capable of inducing immune tolerance against OVA
